System: human neuroblastoma cell line
Test: Release of noradrenaline induced by TPA/Ionomycin in a neuroblastoma cell line, quantified by ELISA
Type: cell-based
Conditions: TPA/ION control = 100.00
Procedure: Quantification of the Release of Noradrenaline Induced by TPA/Ionomycin in a Neuroblastoma Cell Line by ELISA
The induction of the release of noradrenaline with TPA (12-O-tetradecanoylphorbol-13-acetate)/lonomycin enables direct measurement of neuronal exocytosis. For the study of the inhibitory effect of the compounds of the invention on the release of noradrenaline, cells of a human neuroblastoma cell line were pre-incubated (1×10^6 cells/well) for 60 minutes with the compound of the invention (1 μM, 10 μM, 100 μM, 500 μM or 1 mM compounds), and afterward the release of noradrenaline was induced. The release of the noradrenaline neurotransmitter was induced by an 8 minute pre-treatment with a solution of 12-O-tetradecanoylphorbol-13-acetate (TPA) 100 nM, which mobilized the intracellular vesicles which contained the neurotransmitter; followed by a 5 minute incubation with TPA/Ionomycin (100 nM/10 μM), which induced the release of the neurotransmitter contained in these vesicles. […] For this, absorbance at 405 nm was measured in Thermo Scientific Multiskan Ascent equipment.
The blocking of the SNARE complex by the compounds of the invention lead to an inhibition of neuronal exocytosis and therefore, a decrease in the levels of released noradrenaline (Table 6).

Substance | % RELEASED NORADRENALINE Average (dose 10 μM) [%] | % RELEASED NORADRENALINE Average (dose 100 μM) [%] | % RELEASED NORADRENALINE Average (dose 1000 μM) [%]
Ac-HQEHRKMD-NH2 [Ac-SEQ ID NO: 5-NH2] | 85.68 | 81.50 | 51.45
Ac-QNLEHIMDQ-NH2 [Ac-SEQ ID NO: 62-NH2] | 77.76 | 82.72 | 63.99
Ac-QQLENIMDN-NH2 [Ac-SEQ ID NO: 51-NH2] | 81.13 | 101.40 | 35.37

From patent US20150071974A1, “COMPOUNDS WHICH INHIBIT NEURONAL EXOCYTOSIS” (LUBRIZOL ADVANCED MATERIALS, INC., priority 2012, published 2015)
